According to patent US9926282B2, “Phthalazinones and isoquinolinones as rock inhibitors” (BRISTOL-MYERS SQUIBB COMPANY, priority 2013, dated 2018):

Key:
ROCK1 = ROCK1 (Homo sapiens (Human), UniProt Q13464); assay: ROCK assay (LABCHIP peptide phosphorylation), ROCK1; format: biochemical; conditions: 5 μM ATP, 1.5 μM peptide substrate; read-out: ROCK1 IC50
ROCK2 = ROCK2 (Homo sapiens (Human), UniProt O75116); assay: ROCK assay (LABCHIP peptide phosphorylation), ROCK2; format: biochemical; conditions: 5 μM ATP, 1.5 μM peptide substrate
Sequence of ROCK2 (O75116 whole entry, species assumed): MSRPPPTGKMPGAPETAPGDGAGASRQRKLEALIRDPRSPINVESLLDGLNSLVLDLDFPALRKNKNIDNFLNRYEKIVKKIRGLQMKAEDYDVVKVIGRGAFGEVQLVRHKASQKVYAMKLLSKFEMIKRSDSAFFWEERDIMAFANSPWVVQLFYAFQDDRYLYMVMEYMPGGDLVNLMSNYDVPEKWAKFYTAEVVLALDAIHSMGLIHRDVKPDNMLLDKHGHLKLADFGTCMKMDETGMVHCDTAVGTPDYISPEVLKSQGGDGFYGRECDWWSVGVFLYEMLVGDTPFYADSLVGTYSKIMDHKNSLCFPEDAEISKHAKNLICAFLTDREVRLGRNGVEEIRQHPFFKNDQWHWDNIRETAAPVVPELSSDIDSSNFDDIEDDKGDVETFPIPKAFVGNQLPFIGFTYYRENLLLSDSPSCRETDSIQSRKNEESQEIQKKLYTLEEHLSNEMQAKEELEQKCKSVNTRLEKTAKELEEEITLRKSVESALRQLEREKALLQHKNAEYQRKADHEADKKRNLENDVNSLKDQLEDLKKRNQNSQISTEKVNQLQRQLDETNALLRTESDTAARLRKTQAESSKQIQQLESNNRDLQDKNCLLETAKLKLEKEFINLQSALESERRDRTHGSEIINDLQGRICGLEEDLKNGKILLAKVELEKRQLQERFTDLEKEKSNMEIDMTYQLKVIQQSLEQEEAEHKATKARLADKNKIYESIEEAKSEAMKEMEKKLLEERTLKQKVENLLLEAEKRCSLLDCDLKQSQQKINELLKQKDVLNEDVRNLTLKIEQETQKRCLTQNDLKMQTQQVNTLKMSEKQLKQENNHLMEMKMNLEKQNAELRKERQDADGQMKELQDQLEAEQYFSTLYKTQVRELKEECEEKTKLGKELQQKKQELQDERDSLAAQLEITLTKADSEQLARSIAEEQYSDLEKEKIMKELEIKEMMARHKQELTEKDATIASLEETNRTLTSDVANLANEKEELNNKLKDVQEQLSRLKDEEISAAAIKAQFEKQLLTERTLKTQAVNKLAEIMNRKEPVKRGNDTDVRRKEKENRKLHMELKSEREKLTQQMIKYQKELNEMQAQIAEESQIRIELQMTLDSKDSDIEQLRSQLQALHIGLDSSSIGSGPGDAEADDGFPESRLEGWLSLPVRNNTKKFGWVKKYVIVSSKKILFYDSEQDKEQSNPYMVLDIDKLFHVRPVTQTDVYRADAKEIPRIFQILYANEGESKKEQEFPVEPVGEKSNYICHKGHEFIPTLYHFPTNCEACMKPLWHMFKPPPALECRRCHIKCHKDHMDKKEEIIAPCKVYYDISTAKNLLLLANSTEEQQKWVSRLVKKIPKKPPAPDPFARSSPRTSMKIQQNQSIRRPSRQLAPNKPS

Sequence of ROCK1 (Q13464 whole entry, species assumed): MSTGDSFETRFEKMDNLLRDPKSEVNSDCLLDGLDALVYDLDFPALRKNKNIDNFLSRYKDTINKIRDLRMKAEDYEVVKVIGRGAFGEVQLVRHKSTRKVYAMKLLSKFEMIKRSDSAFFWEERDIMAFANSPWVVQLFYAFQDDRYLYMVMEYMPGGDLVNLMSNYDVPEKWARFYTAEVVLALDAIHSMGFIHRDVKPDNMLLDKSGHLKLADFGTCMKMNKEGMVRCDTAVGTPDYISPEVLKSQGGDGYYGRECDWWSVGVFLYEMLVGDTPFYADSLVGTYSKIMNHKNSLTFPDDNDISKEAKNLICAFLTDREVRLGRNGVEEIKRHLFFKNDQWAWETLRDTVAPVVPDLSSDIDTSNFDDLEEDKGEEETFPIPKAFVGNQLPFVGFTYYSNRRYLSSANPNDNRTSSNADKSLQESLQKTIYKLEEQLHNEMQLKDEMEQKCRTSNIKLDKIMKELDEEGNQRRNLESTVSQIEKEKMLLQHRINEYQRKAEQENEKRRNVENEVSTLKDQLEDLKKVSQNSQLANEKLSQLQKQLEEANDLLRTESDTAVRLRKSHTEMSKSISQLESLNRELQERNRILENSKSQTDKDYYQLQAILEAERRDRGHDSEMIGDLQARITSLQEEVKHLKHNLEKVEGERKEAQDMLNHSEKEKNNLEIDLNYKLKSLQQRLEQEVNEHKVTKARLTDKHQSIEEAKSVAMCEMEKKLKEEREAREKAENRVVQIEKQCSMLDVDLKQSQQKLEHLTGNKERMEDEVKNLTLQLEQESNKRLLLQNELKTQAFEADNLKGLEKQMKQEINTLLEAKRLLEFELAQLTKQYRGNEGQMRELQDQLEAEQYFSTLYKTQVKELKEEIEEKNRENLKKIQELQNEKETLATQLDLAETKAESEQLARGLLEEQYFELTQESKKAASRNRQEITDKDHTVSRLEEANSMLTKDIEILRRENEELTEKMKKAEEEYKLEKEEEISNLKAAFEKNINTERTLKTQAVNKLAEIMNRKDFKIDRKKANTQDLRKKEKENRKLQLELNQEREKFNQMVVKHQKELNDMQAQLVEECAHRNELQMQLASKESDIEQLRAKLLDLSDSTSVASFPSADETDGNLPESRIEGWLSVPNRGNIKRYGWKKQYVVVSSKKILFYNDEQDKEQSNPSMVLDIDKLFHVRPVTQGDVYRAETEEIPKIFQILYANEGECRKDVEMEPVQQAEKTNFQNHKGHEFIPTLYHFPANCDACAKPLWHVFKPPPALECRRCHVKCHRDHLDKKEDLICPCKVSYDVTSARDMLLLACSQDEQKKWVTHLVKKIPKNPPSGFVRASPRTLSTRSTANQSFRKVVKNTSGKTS

With `COc1ccc2c(c1)N(C(=O)Nc1ccc(-c3c[nH]c(=O)c4ccc(OC)cc34)cc1)CC2` [Example 268, 6-Methoxy-N-(4-(6-methoxy-1-oxo-1,2-dihydroisoquinolin-4-yl)phenyl)indoline-1-carboxamide] as the compound, how does the IC50 (ROCK1) read?
The IC50 was 0.1 to 100 nM.

And the IC50 (ROCK2)?
Its IC50 is 0.1 to 100 nM.

What does the source list for `COCCN1CCC(C(=O)Nc2ccc(-c3n[nH]c(=O)c4ccccc34)cc2)C1` (centres unmarked) [Example 57, 1-(2-methoxyethyl)-N-[4-(4-oxo-3,4-dihydrophthalazin-1-yl)phenyl]pyrrolidine-3-carboxamide]?
IC50 (ROCK1): 1000 to 50000 nM; IC50 (ROCK2): 1000 to 50000 nM

Which IC50 (ROCK1) does the source give for `O=C(Cc1ccc(-c2n[nH]c(=O)c3ccccc23)cc1)N1CCc2ccc(OCC3COC3)cc21` [Example 284, 4-(4-{2-[6-(oxetan-3-ylmethoxy)-2,3-dihydro-1H-indol-1-yl]-2-oxoethyl}phenyl)-1,2-dihydrophthalazin-1-one] here?
Its IC50 is 0.1 to 100 nM.

And the IC50 (ROCK2)?
Its IC50 is 0.1 to 100 nM.

For `CN1CCN(c2ccc(C(=O)Nc3ccc(-c4n[nH]c(=O)c5ccccc45)cc3)cc2)CC1` [Example 64, 4-(4-methylpiperazin-1-yl)-N-[4-(4-oxo-3,4-dihydrophthalazin-1-yl)phenyl]benzamide], which IC50 (ROCK1) is on record?
The IC50 was 101 to 1000 nM.

What about the IC50 (ROCK2) of the same compound?
The IC50 was 0.1 to 100 nM.

Which IC50 (ROCK1) does the source give for `CC(C)(O)Cn1nc(C(=O)Nc2ccc(-c3n[nH]c(=O)c4ccccc34)c(CO)c2)c2ccccc21` [Example 360, 1-(2-Hydroxy-2-methylpropyl)-N-(3-(hydroxymethyl)-4-(4-oxo-3,4-dihydrophthalazin-1-yl)phenyl)-1H-indazole-3-carboxamide] here?
The IC50 was 1000 to 50000 nM.

And the IC50 (ROCK2)?
The IC50 was 0.1 to 100 nM.

For `Cc1cc(CC(=O)N2Cc3ccccc3C2)ccc1-c1n[nH]c(=O)c2ccccc12` [Example 260, 4-(4-(2-(Isoindolin-2-yl)-2-oxoethyl)-2-methylphenyl)phthalazin-1(2H)-one], which IC50 (ROCK1) is on record?
The IC50 was 101 to 1000 nM.

And the IC50 (ROCK2)?
Its IC50 is 0.1 to 100 nM.

`Cn1ncc(C(=O)Nc2ccc(-c3n[nH]c(=O)c4ccccc34)cc2)c1-c1ccccc1` [Example 192, 1-methyl-N-[4-(4-oxo-3,4-dihydrophthalazin-1-yl)phenyl]-5-phenyl-1H-pyrazole-4-carboxamide] was tested. Which IC50 (ROCK1) did it give?
The IC50 was 101 to 1000 nM.

And the IC50 (ROCK2)?
The IC50 was 0.1 to 100 nM.

Which IC50 (ROCK1) does the source give for `COc1ccc2[nH]nc(C(=O)Nc3ccc(-c4n[nH]c(=O)c5ccccc45)cc3)c2c1` [Example 123, 5-methoxy-N-[4-(4-oxo-3,4-dihydrophthalazin-1-yl)phenyl]-1H-indazole-3-carboxamide] here?
Its IC50 is 101 to 1000 nM.

And the IC50 (ROCK2)?
Its IC50 is 0.1 to 100 nM.

`O=C(Cc1ccc(-c2n[nH]c(=O)c3ccccc23)cc1)N1CCc2ccc(OCc3ccncc3)cc21` [Example 272, 4-(4-{2-oxo-2-[6-(pyridin-4-ylmethoxy)-2,3-dihydro-1H-indol-1-yl]ethyl}phenyl)-1,2-dihydrophthalazin-1-one] was tested. Which IC50 (ROCK1) did it give?
Its IC50 is 0.1 to 100 nM.

What about the IC50 (ROCK2) of the same compound?
Its IC50 is 0.1 to 100 nM.

`Cc1cc(NC(=O)c2nn(CC3CCN(C(=O)OCc4ccccc4)CC3)c3ccccc23)ccc1-c1n[nH]c(=O)c2ccccc12` [Example 307, benzyl 4-[(3-{[3-methyl-4-(4-oxo-3,4-dihydrophthalazin-1-yl)phenyl]carbamoyl}-1H-indazol-1-yl)methyl] piperidine-1-carboxylate] was tested. Which IC50 (ROCK1) did it give?
The IC50 was 101 to 1000 nM.

And the IC50 (ROCK2)?
The IC50 was 0.1 to 100 nM.

Which IC50 (ROCK1) does the source give for `O=C(Nc1ccc(-c2n[nH]c(=O)c3ccccc23)cc1)c1csc(-c2ccccc2)n1` [Example 46, N-[4-(4-oxo-3,4-dihydrophthalazin-1-yl)phenyl]-2-phenyl-1,3-thiazole-4-carboxamide] here?
Its IC50 is 1000 to 50000 nM.

And the IC50 (ROCK2)?
The IC50 was 0.1 to 100 nM.

Which IC50 (ROCK1) does the source give for `COc1cc(C)c2c(c1)CCN2C(=O)Cc1ccc(-c2n[nH]c(=O)c3ccccc23)cc1` [Example 252, 4-(4-(2-(5-Methoxy-7-methylindolin-1-yl)-2-oxoethyl)phenyl)phthalazin-1(2H)-one] here?
The IC50 was 1000 to 50000 nM.

What about the IC50 (ROCK2) of the same compound?
The IC50 was 101 to 1000 nM.

Which IC50 (ROCK1) does the source give for `Cc1cc(NC(=O)c2cnn(-c3ccccc3)c2C)ccc1-c1n[nH]c(=O)c2ccccc12` [Example 394, 5-Methyl-N-(3-methyl-4-(4-oxo-3,4-dihydrophthalazin-1-yl)phenyl)-1-phenyl-1H-pyrazole-4-carboxamide] here?
The IC50 was 101 to 1000 nM.

And the IC50 (ROCK2)?
Its IC50 is 0.1 to 100 nM.

Which results are given for `CC(C)(O)CCn1nc(C(=O)Nc2ccc(-c3n[nH]c(=O)c4ccccc34)cc2)c2ccccc21` [Example 333, 1-(3-Hydroxy-3-methylbutyl)-N-(4-(4-oxo-3,4-dihydrophthalazin-1-yl)phenyl)-1H-indazole-3-carboxamide]?
IC50 (ROCK1): 0.1 to 100 nM; IC50 (ROCK2): 0.1 to 100 nM

What does the source list for `O=C(Nc1ccc(-c2n[nH]c(=O)c3ccccc23)c(Cl)c1)c1cnc2ccccn12` [Example 317, N-[3-chloro-4-(4-oxo-3,4-dihydrophthalazin-1-yl)phenyl]imidazo[1,2-a] pyridine-3-carboxamide]?
IC50 (ROCK1): 0.1 to 100 nM; IC50 (ROCK2): 0.1 to 100 nM

For `O=C(Nc1ccc(-c2n[nH]c(=O)c3ccccc23)cc1)c1ccc(N2CCCC2)cc1` [Example 60], which IC50 (ROCK1) is on record?
The IC50 was 0.1 to 100 nM.

What about the IC50 (ROCK2) of the same compound?
Its IC50 is 0.1 to 100 nM.

Which IC50 (ROCK1) does the source give for `O=C(Nc1ccc(-c2n[nH]c(=O)c3ccccc23)cc1)c1cnn(-c2cccc(Cl)c2)c1` [Example 198, 1-(3-chlorophenyl)-N-[4-(4-oxo-3,4-dihydrophthalazin-1-yl)phenyl]-1H-pyrazole-4-carboxamide] here?
The IC50 was 0.1 to 100 nM.

And the IC50 (ROCK2)?
Its IC50 is 0.1 to 100 nM.

Which IC50 (ROCK1) does the source give for `CC(=O)N1CCC(C(=O)Nc2ccc(-c3n[nH]c(=O)c4ccccc34)cc2)CC1` [Example 55, 1-acetyl-N-[4-(4-oxo-3,4-dihydrophthalazin-1-yl)phenyl]piperidine-4-carboxamide] here?
The IC50 was 1000 to 50000 nM.

What about the IC50 (ROCK2) of the same compound?
The IC50 was 1000 to 50000 nM.

Which results are given for `O=C(COc1ccc2c(c1)N(C(=O)Cc1ccc(-c3n[nH]c(=O)c4ccccc34)cc1)CC2)N1CCOCC1` [Example 297, 4-(4-(2-(6-(2-Morpholino-2-oxoethoxy)indolin-1-yl)-2-oxoethyl)phenyl)phthalazin-1(2H)-one]?
IC50 (ROCK1): 0.1 to 100 nM; IC50 (ROCK2): 0.1 to 100 nM

What does the source list for `CN(C)CCOc1ccc2c(C(=O)Nc3ccc(-c4n[nH]c(=O)c5ccccc45)cc3)cnn2c1` [Example 177, 6-[2-(dimethylamino)ethoxy]-N-[4-(4-oxo-3,4-dihydrophthalazin-1-yl)phenyl]pyrazolo[1,5-a]pyridine-3-carboxamide]?
IC50 (ROCK1): 0.1 to 100 nM; IC50 (ROCK2): 0.1 to 100 nM

For `Cn1nc(C(=O)Nc2ccc(-c3n[nH]c(=O)c4ccccc34)cc2)cc1OC(F)F` [Example 403, 5-(Difluoromethoxy)-1-methyl-N-(4-(4-oxo-3,4-dihydrophthalazin-1-yl)phenyl)-1H-pyrazole-3-carboxamide], which IC50 (ROCK1) is on record?
The IC50 was 0.1 to 100 nM.

What about the IC50 (ROCK2) of the same compound?
The IC50 was 0.1 to 100 nM.

Which results are given for `Cc1cc(NC(=O)c2nn(CC3CN(C)C3)c3ccccc23)ccc1-c1n[nH]c(=O)c2ccccc12` [Example 330, N-(3-Methyl-4-(4-oxo-3,4-dihydrophthalazin-1-yl)phenyl)-1-((1-methylazetidin-3-yl)methyl)-1H-indazole-3-carboxamide]?
IC50 (ROCK1): 0.1 to 100 nM; IC50 (ROCK2): 101 to 1000 nM

How did the IC50 (ROCK1) turn out when `O=C(Nc1ccc(-c2c[nH]c(=O)c3ccccc23)cc1)c1onc2ccccc12` [Example 247, N-(4-(1-Oxo-1,2-dihydroisoquinolin-4-yl)phenyl)benzo[c]isoxazole-3-carboxamide] was run?
Its IC50 is 0.1 to 100 nM.

What about the IC50 (ROCK2) of the same compound?
The IC50 was 0.1 to 100 nM.

Which IC50 (ROCK1) does the source give for `Cn1nc(C(=O)Nc2ccc(-c3n[nH]c(=O)c4ccccc34)cc2)cc1C12CC3CC(CC(C3)C1)C2` [Example 201, 5-(adamantan-1-yl)-1-methyl-N-[4-(4-oxo-3,4-dihydrophthalazin-1-yl)phenyl]-1H-pyrazole-3-carboxamide] here?
The IC50 was 0.1 to 100 nM.

And the IC50 (ROCK2)?
Its IC50 is 0.1 to 100 nM.

What does the source list for `O=C(Nc1ccc(-c2n[nH]c(=O)c3ccccc23)c(Cl)c1)c1nn(CC2CCOCC2)c2ccccc12` [Example 318, N-[3-chloro-4-(4-oxo-3,4-dihydrophthalazin-1-yl)phenyl]-1-(oxan-4-ylmethyl)-1H-indazole-3-carboxamide]?
IC50 (ROCK1): 0.1 to 100 nM; IC50 (ROCK2): 0.1 to 100 nM

With `COC(=O)N1CC(Cn2nc(C(=O)Nc3ccc(-c4n[nH]c(=O)c5ccccc45)cc3)c3ccccc32)C1` [Example 341, Methyl 3-((3-((4-(4-oxo-3,4-dihydrophthalazin-1-yl)phenyl)carbamoyl)-1H-indazol-1-yl)methyl)azetidine-1-carboxylate] as the compound, how does the IC50 (ROCK1) read?
Its IC50 is 0.1 to 100 nM.

What about the IC50 (ROCK2) of the same compound?
The IC50 was 0.1 to 100 nM.

How did the IC50 (ROCK1) turn out when `O=C(Nc1ccc(-c2n[nH]c(=O)c3ccccc23)cc1)N1CCc2ccccc21` [Example 76, N-(4-(4-Oxo-3,4-dihydrophthalazin-1-yl)phenyl)indoline-1-carboxamide] was run?
Its IC50 is 0.1 to 100 nM.

And the IC50 (ROCK2)?
Its IC50 is 0.1 to 100 nM.

For `COc1ccn2ncc(C(=O)Nc3ccc(-c4n[nH]c(=O)c5ccccc45)cc3)c2c1` [Example 182, 5-methoxy-N-[4-(4-oxo-3,4-dihydrophthalazin-1-yl)phenyl]pyrazolo[1,5-a]pyridine-3-carboxamide], which IC50 (ROCK1) is on record?
Its IC50 is 0.1 to 100 nM.

What about the IC50 (ROCK2) of the same compound?
Its IC50 is 0.1 to 100 nM.

How did the IC50 (ROCK1) turn out when `O=C(Cc1ccc(-c2n[nH]c(=O)c3ccccc23)cc1)Nc1ccc2ncsc2c1` [Example 21] was run?
The IC50 was 101 to 1000 nM.

What about the IC50 (ROCK2) of the same compound?
The IC50 was 0.1 to 100 nM.

Which results are given for `Cn1cc(C(=O)Nc2ccc(-c3n[nH]c(=O)c4ccccc34)cc2)cn1` [Example 212, 1-methyl-N-[4-(4-oxo-3,4-dihydrophthalazin-1-yl)phenyl]-1H-pyrazole-4-carboxamide]?
IC50 (ROCK1): 101 to 1000 nM; IC50 (ROCK2): 0.1 to 100 nM

`O=C(Nc1ccc(-c2n[nH]c(=O)c3ccccc23)cc1)c1cn2ccccc2n1` [Example 89, N-[4-(4-oxo-3,4-dihydrophthalazin-1-yl)phenyl]imidazo[1,2-a]pyridine-2-carboxamide] was tested. Which IC50 (ROCK1) did it give?
The IC50 was 101 to 1000 nM.

And the IC50 (ROCK2)?
Its IC50 is 0.1 to 100 nM.

Which IC50 (ROCK1) does the source give for `O=C(Nc1ccc(-c2n[nH]c(=O)c3ccccc23)cc1)c1noc2ccccc12` [Example 118, N-[4-(4-oxo-3,4-dihydrophthalazin-1-yl)phenyl]-1,2-benzoxazole-3-carboxamide] here?
Its IC50 is 101 to 1000 nM.

What about the IC50 (ROCK2) of the same compound?
The IC50 was 0.1 to 100 nM.

Which IC50 (ROCK1) does the source give for `CC(C)(C)OC(=O)N1CC(Cn2nc(C(=O)Nc3ccc(-c4n[nH]c(=O)c5ccccc45)c(Cl)c3)c3ccccc32)C1` [Example 316, tert-butyl 3-[(3-{[3-chloro-4-(4-oxo-3,4-dihydrophthalazin-1-yl)phenyl]carbamoyl}-1H-indazol-1-yl)methyl] azetidine-1-carboxylate] here?
The IC50 was 101 to 1000 nM.

What about the IC50 (ROCK2) of the same compound?
Its IC50 is 0.1 to 100 nM.

Which IC50 (ROCK1) does the source give for `O=C(Nc1ccc(-c2n[nH]c(=O)c3ccccc23)cc1)C1CCN(Cc2ccccc2)CC1` [Example 56, 1-benzyl-N-[4-(4-oxo-3,4-dihydrophthalazin-1-yl)phenyl]piperidine-4-carboxamide] here?
The IC50 was 1000 to 50000 nM.

And the IC50 (ROCK2)?
The IC50 was 1000 to 50000 nM.
